The text below walks through data of ChEMBL document CHEMBL4043175, “Tetrahydrobenzothiophene carboxamides: Beyond the kinase domain and into the fatty acid realm” (Bioorg Med Chem Lett, 2017).

SMILES strings stand for the structures. Activity calls are given as the source filed them. The rule behind the calls is not given here.

For assay [1], the target named is T1, Stearoyl-CoA desaturase (Homo sapiens) (UniProt O00767).
T1 sequence (whole entry): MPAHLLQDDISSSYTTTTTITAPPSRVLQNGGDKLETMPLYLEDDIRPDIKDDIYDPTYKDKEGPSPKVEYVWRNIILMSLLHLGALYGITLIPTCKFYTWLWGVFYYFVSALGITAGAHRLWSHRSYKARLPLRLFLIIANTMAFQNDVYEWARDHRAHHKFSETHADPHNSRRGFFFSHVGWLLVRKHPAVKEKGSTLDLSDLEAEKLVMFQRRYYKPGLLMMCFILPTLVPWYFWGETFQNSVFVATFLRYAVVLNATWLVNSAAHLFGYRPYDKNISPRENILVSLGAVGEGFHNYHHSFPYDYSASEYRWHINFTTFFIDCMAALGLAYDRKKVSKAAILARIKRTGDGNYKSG
The assay is described as follows: Inhibition of SCD1 in human HepG2 cells assessed as decrease in 16:1/16:0 desaturase index after 72 hrs by gas chromatographic analysis. The class given is cell-based.

The target in assay [2] is T1, Stearoyl-CoA desaturase (Homo sapiens). Briefly: Inhibition of SCD1 in human HepG2 cells assessed as decrease in 18:1/18:0 desaturase index after 72 hrs by gas chromatographic analysis. The class given is cell-based.
The target is the same in assay [3]. Briefly: Inhibition of SCD1 in human HepG2 cells assessed as increase in cellular elongase index at 10 uM after 72 hrs by gas chromatographic analysis. Format: cell-based.
Assay [4] has the same target. Briefly: Inhibition of SCD1 in human HepG2 cells assessed as decrease in 16:1/16:0 desaturase index at 10 uM after 72 hrs by gas chromatographic analysis. Format: cell-based.
Assay [5] shares this target. Briefly: Inhibition of SCD1 in human HepG2 cells assessed as decrease in 18:1/18:0 desaturase index AT 10 uM after 72 hrs by gas chromatographic analysis. Format: cell-based.
The target is the same in assay [6]. Briefly: Inhibition of SCD1 in human HepG2 cells assessed as decrease in cellular elongase index at 10 uM after 72 hrs by gas chromatographic analysis. The class given is cell-based.
Assay [7] has the same target. The assay is described as follows: Inhibition of SCD1 in human HepG2 cells assessed as increase in cellular elongase index after 72 hrs by gas chromatographic analysis. The class given is cell-based.
The target is the same in assay [8]. The assay is described as follows: Inhibition of SCD1 in human HepG2 cells assessed as decrease in cellular lipid accumulation at 1 uM after 48 hrs by Oil Red O staining-based assay. The class given is cell-based.
For assay [9] the target is unchanged. Briefly: Inhibition of SCD1 in human HepG2 cells assessed as decrease in cellular lipid accumulation at 10 uM after 48 hrs by Oil Red O staining-based assay. Format: cell-based.
For assay [10] the target is unchanged. Briefly: Inhibition of SCD1 in human HepG2 cells assessed as increase in cellular elongase index at 1 uM after 72 hrs by gas chromatographic analysis. The class given is cell-based.
For assay [11] the target is unchanged. Briefly: Inhibition of SCD1 in human HepG2 cells assessed as decrease in 16:1/16:0 desaturase index at 1 uM after 72 hrs by gas chromatographic analysis. The class given is cell-based.
Assay [12] has the same target. Briefly: Inhibition of SCD1 in human HepG2 cells assessed as decrease in 18:1/18:0 desaturase index at 1 uM after 72 hrs by gas chromatographic analysis. The class given is cell-based.
For assay [13], the target named is Tyrosine-protein kinase JAK2 (Homo sapiens) (UniProt O60674). The assay is described as follows: Inhibition of recombinant human N-terminal His-tagged JAK2 catalytic domain (826 to 1132 residues) expressed in baculovirus expression system at 10 uM by TR-FRET assay relative to control. On the technique in general: Time-resolved FRET reads energy transfer from a long-lived donor to a nearby acceptor.
Tyrosine-protein kinase JAK2 (Homo sapiens), sequence (O60674 whole entry, the tested form may be a part): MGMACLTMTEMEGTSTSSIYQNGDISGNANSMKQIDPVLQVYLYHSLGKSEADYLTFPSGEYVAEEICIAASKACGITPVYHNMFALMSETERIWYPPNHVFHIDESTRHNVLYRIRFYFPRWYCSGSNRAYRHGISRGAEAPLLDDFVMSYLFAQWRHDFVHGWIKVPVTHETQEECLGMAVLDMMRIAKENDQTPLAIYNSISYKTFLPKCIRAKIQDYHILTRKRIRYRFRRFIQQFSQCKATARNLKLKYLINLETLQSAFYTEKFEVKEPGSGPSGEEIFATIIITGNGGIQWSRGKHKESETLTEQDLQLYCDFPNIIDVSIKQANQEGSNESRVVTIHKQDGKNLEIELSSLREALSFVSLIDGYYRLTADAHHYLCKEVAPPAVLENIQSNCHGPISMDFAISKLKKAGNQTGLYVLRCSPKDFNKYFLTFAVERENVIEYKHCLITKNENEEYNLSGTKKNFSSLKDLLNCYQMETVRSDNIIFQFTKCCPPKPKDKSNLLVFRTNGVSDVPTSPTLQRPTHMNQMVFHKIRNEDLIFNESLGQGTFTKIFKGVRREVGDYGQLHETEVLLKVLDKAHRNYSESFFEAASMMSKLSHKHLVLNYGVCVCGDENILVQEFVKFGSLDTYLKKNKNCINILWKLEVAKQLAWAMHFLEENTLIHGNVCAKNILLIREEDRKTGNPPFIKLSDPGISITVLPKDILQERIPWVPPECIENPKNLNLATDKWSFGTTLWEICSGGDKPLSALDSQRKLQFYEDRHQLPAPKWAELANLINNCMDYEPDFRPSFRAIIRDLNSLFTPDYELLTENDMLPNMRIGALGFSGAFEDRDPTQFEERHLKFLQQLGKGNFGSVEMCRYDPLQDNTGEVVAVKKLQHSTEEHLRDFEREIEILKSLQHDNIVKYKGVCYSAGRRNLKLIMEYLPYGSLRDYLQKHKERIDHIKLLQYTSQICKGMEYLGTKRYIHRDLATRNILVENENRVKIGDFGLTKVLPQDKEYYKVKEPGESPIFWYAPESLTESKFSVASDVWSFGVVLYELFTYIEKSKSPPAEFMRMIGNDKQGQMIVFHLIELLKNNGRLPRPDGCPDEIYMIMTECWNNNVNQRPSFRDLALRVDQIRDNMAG

The target of assay [14] is Receptor-type tyrosine-protein kinase FLT3 (Homo sapiens) (UniProt P36888). Briefly: Inhibition of recombinant human N-terminal GST-tagged FLT3 cytoplasmic domain (564 to 993 residues) expressed in baculovirus expression system at 10 uM by TR-FRET assay relative to control.
Receptor-type tyrosine-protein kinase FLT3 (Homo sapiens), sequence (P36888 whole entry, the tested form may be a part): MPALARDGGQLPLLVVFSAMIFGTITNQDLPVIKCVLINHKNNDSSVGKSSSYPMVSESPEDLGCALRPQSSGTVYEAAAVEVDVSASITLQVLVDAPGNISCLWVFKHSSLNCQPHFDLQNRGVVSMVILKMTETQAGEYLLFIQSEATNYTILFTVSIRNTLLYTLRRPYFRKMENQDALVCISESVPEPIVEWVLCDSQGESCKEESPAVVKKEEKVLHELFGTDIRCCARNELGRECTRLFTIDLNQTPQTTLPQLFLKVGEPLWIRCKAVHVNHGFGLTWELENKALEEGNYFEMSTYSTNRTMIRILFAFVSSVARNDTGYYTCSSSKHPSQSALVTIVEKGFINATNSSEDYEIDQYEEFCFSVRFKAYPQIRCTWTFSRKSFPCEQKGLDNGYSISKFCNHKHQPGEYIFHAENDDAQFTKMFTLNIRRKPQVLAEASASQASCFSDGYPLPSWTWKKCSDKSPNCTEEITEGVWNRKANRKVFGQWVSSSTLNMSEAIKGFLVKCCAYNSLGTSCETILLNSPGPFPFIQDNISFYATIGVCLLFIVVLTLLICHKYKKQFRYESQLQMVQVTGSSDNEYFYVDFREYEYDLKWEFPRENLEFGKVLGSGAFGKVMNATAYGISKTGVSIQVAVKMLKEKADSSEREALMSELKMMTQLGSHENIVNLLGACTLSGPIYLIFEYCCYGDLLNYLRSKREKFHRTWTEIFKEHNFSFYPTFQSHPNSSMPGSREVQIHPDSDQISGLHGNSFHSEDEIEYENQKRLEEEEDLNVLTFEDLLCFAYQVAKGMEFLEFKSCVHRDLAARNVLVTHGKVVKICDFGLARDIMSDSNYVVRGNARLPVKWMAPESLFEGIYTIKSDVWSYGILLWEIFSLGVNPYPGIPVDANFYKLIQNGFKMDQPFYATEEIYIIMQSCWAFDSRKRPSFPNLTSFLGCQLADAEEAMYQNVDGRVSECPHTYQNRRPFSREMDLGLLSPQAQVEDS
Assay [15] addresses Macrophage colony-stimulating factor 1 receptor (Homo sapiens) (UniProt P07333). Briefly: Inhibition of recombinant human N-terminal GST-tagged FMS cytoplasmic domain (538 to 972 residues) expressed in baculovirus expression system at 10 uM by TR-FRET assay relative to control.
Assay [16] concerns the target Tyrosine-protein kinase ABL1 (Homo sapiens) (UniProt P00519). The assay is described as follows: Inhibition of full-length recombinant human N-terminal His-tagged ABL expressed in baculovirus expression system at 10 uM by TR-FRET assay relative to control.

Macrophage colony-stimulating factor 1 receptor (Homo sapiens), sequence (P07333 whole entry, the tested form may be a part): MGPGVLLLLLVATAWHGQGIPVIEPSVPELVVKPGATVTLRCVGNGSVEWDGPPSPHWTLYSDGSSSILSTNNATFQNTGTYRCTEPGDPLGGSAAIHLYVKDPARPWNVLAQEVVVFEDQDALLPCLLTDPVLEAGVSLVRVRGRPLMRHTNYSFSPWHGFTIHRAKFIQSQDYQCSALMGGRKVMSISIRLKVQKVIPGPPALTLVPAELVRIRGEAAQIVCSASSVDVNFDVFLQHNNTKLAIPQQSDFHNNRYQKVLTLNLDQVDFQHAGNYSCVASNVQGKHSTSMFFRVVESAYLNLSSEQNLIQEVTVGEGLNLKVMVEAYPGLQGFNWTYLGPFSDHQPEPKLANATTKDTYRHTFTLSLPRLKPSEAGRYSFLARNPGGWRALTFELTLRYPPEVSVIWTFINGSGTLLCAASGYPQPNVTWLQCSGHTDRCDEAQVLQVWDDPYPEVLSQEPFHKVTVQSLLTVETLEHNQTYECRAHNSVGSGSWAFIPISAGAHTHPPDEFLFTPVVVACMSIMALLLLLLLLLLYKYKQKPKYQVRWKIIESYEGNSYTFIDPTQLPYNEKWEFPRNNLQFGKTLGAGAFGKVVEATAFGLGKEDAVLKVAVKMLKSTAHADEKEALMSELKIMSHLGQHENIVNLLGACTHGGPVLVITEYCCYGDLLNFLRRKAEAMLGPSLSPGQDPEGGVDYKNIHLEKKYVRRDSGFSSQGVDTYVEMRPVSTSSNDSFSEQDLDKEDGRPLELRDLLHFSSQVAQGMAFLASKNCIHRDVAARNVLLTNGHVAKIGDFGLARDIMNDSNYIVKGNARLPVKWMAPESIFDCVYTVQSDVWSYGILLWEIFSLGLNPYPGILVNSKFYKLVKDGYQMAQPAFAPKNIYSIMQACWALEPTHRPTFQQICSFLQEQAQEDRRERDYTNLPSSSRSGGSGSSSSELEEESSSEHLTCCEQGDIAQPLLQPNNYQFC
Tyrosine-protein kinase ABL1 (Homo sapiens), sequence (P00519 whole entry): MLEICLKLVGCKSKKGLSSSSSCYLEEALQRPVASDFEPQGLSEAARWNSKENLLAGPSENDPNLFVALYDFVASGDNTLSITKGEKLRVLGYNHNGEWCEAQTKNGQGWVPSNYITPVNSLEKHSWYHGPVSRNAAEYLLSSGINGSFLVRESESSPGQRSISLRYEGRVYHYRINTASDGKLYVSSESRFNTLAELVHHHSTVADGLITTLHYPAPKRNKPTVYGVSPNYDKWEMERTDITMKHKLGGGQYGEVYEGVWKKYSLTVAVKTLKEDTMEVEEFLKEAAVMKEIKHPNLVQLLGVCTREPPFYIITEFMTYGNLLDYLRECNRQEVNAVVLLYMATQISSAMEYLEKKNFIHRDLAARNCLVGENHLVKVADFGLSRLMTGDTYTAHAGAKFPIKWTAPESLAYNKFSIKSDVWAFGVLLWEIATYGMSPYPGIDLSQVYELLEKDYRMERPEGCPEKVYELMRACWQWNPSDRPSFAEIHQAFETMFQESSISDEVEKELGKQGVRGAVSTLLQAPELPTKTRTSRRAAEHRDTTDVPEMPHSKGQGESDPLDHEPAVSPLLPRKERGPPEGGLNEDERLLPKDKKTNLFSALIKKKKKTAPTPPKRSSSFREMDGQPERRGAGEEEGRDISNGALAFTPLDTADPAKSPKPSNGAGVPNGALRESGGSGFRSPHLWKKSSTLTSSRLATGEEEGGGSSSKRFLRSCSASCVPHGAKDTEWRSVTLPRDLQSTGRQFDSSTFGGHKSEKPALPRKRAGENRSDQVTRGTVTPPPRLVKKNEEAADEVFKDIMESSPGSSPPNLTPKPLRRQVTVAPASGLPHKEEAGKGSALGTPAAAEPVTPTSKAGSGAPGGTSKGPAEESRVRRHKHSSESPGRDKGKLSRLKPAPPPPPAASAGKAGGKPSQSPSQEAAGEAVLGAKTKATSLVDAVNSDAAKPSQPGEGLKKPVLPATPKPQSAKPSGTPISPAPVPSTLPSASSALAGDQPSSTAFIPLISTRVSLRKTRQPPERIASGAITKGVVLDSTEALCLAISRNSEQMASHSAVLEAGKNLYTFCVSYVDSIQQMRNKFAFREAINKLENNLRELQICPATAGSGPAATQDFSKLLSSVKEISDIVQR

With `NC(=O)c1c(NC(=O)c2ccc(CN3CCS(=O)(=O)CC3)cc2)sc2c1CCC(CO)C2` (stereo not given), the inhibition result in [1] and in assay [2] was “Dose-dependent effect” each time. Also, the inhibition result in [3], in assay [4] and in [5] was “Active” throughout.

For `O=c1[nH]c(-c2ccc(CN3CCS(=O)(=O)CC3)cc2)nc2sc3c(c12)CCC(CO)C3` (stereo not given), the inhibition result in [6] is “Active”.

On to `NC(=O)c1c(NC(=O)c2ccc(CN3CCOCC3)cc2)sc2c1CCCC2`, for which the inhibition result in assay [6] was “Active”.

For `O=c1[nH]c(-c2ccc(CN3CCCCC3)cc2)nc2sc3c(c12)CCC(CO)C3` (stereo not given), the inhibition result in [6] is “Active”.

For the compound `NC(=O)c1c(NC(=O)c2ccc(CN3CCCCC3)cc2)sc2c1CCC(CO)C2` (stereo not given), the inhibition result in assay [1] and in assay [2] was “Dose-dependent effect” throughout. For the same compound, the inhibition entry in [3], in assay [4] and in assay [5] was “Active” throughout.

On to `CN(C)Cc1ccc(C(=O)Nc2sc3c(c2C(N)=O)CCC(CO)C3)cc1` (stereo not given), for which the inhibition entry in assay [1] and in assay [2] was “Dose-dependent effect” each time. Also, the inhibition result in assay [3], in assay [4] and in assay [5] was “Active” in each case.

Consider `Cc1nnc(-c2ccc(N3CCC(Oc4cc(F)ccc4Cl)CC3)nn2)o1`, for which the inhibition result in [7], in assay [1] and in assay [2] was “Dose-dependent effect” each time. In addition, the inhibition entry in assay [3], in assay [4], in assay [5] and in assay [8] was “Active” throughout.

On to `NC(=O)c1c(NC(=O)c2ccc(CN3CCOCC3)cc2)sc2c1CCC(c1ccc(O)cc1)C2` (stereo not given), for which the inhibition result in [3] was “inactive”.

For the compound `NC(=O)c1c(N)sc2c1CCC(CO)C2` (stereo not given), the inhibition entry in assay [6] was “Active”.

Consider `O=c1[nH]c(-c2ccc(CN3CCOCC3)cc2)nc2sc3c(c12)CCC(CO)C3` (stereo not given), for which the inhibition result in assay [1] and in [2] was “Dose-dependent effect” throughout. Besides, the inhibition entry in assay [3], in [4] and in [5] was “Active” throughout.

For `NC(=O)c1c(NC(=O)c2ccc(CN3CCOCC3)cc2)sc2c1CCCC2CCO` (stereo not given), the inhibition result in assay [6] was “Active”.

As to `NC(=O)c1c(NC(=O)c2ccc(CN3CCOCC3)cc2)sc2c1CCC(C(=O)O)C2` (stereo not given), in assay [3], the inhibition result is “inactive”.

`CN(C)Cc1ccc(-c2nc3sc4c(c3c(=O)[nH]2)CCC(CO)C4)cc1` (stereo not given): the inhibition entry in [6] is “Active”. In [9], the inhibition entry was “inactive”.

With `CCOC(=O)C1CCc2c(sc(NC(=O)c3ccc(CN4CCOCC4)cc3)c2C(N)=O)C1` (stereo not given), in [6], the inhibition entry is “Active”.

Regarding `NC(=O)c1c(NC(=O)c2ccc(CN3CCOCC3)cc2)sc2c1CCC(CO)C2` (stereo not given), the inhibition entry is “Dose-dependent effect” in assay [1]; “Dose-dependent effect” in assay [2]; 45% in [13]; above 80% in assay [14]; above 80% in [15]; above 80% in [16]. The inhibition entry in assay [3], in assay [4], in assay [5], in assay [10], in [11] and in [12] was “Active” in each case. Besides, in assay [9], the inhibition entry was “Active”.

By inhibition is commonly meant the share of the control response that was lost under treatment.
